Earlier results, collected in US20260256768A1, “DRY POWDER COMPOSITIONS OF BEDAQUILINE AND SALTS AND METHODS OF USE THEREOF” (Insmed Incorporated, priority 2022, published 2026).

What was measured:
cancer metastasis = details: in vivo
lung tumor = details: animal model
[1] = test system: MCF7 breast cancer cells-derived cancer stem-like cells
[2] = test system: non-small cell lung cancer cell lines; details: two non-small cell lung cancer cell lines

Structure (SMILES): COc1nc2ccc(Br)cc2cc1[C@@H](c1ccccc1)[C@@](O)(CCN(C)C)c1cccc2ccccc12 [bedaquiline, (1R,2S)-1-(6-bromo-2-methoxyquinolin-3-yl)-4-(dimethylamino)-2-naphthalen-1-yl-1-phenylbutan-2-ol]
- effect on cancer metastasis (cancer metastasis): inhibit cancer metastasis
- effect on lung tumor growth and angiogenesis (lung tumor): inhibit lung tumor growth and angiogenesis
- effect on propagation and expansion of cancer stem-like cells [1]: block the propagation and expansion
- cytotoxicity [2]: cytotoxic properties
